Where two headings read alike, the source gives them in different places.
Tested on: K. pneumoniae NVT1001 strains with ESBL or AmpC β-lactamase plasmids
Test: Etest MIC of β-lactams, OmpK35/36 loss, ΔramR and/or extended-spectrum β-lactamase and AmpC β-lactamase (Table 8)
Assay type: cell-based, Klebsiella pneumoniae
Settings: for MIC: Klebsiella pneumoniae
Experimental: DNA fragments of the resistance genes along with their flanking regions were amplified from clinical plasmids via PCR with specific primer pairs. The resulting PCR fragments were digested and then cloned into the plasmid pACYC177 or pACYC184. The resulting plasmids were then transformed into K. pneumoniae strain NVT1001 via electroporation. The recombinant bacteria were plated onto LB agar plates containing kanamycin (50 mg/L) or chloramphenicol (50 mg/L), and the presence of the cloned gene was confirmed via PCR and DNA sequencing.
The MICs of antibiotics were determined using the Etest (Biodisk AB, Sweden) according to the manufacturer's instructions. The MICs from the Etest, which fall between standard two-fold dilutions, were rounded up to the next highest two-fold value. The MICs of ceftazidime and cefotaxime against K. pneumoniae NVT1001 harbouring the pACYC177 plasmid with blaOXA-48 were further determined using a broth microdilution test according to the recommendations of the CLSI,^25 and the results were interpreted according to the breakpoints established by the CLSI in 2017.^25 Meanwhile, due to the lack of CLSI breakpoints in 2016 and 2017, the results for cephalothin were interpreted according to the breakpoints established by the CLSI in 2015,^26 and the results for moxifloxacin were interpreted according to the breakpoints established by the EUCAST in 2017.^27

[1] = CMY-2 on pACYC177, WT (NVT1001), read-out: MIC
[2] = CMY-2 on pACYC177, Δ35 (ΔompK35 mutant)
[3] = CMY-2 on pACYC177, Δ35/36 (ΔompK35/36 mutant)
[4] = CMY-2 on pACYC177, Δ36 (ΔompK36 mutant)
[5] = CMY-2 on pACYC177, ΔramR mutant
[6] = CMY-2 on pACYC177, ΔramRΔ35 (ΔramRΔompK35 mutant)
[7] = CMY-2 on pACYC177, ΔramRΔ35/36 (ΔramRΔompK35/36 mutant)
[8] = CMY-2 on pACYC177, ΔramRΔ36 (ΔramRΔompK36 mutant)
[9] = CTX-M-14 on pACYC177, WT (NVT1001), read-out: MIC
[10] = CTX-M-14 on pACYC177, Δ35 (ΔompK35 mutant)
[11] = CTX-M-14 on pACYC177, Δ35/36 (ΔompK35/36 mutant)
[12] = CTX-M-14 on pACYC177, Δ36 (ΔompK36 mutant)
[13] = CTX-M-14 on pACYC177, ΔramR mutant
[14] = CTX-M-14 on pACYC177, ΔramRΔ35 (ΔramRΔompK35 mutant)
[15] = CTX-M-14 on pACYC177, ΔramRΔ35/36 (ΔramRΔompK35/36 mutant)
[16] = CTX-M-14 on pACYC177, ΔramRΔ36 (ΔramRΔompK36 mutant)
[17] = CTX-M-15 on pACYC177, WT (NVT1001), read-out: MIC
[18] = CTX-M-15 on pACYC177, Δ35 (ΔompK35 mutant)
[19] = CTX-M-15 on pACYC177, Δ35/36 (ΔompK35/36 mutant)
[20] = CTX-M-15 on pACYC177, Δ36 (ΔompK36 mutant)
[21] = CTX-M-15 on pACYC177, ΔramR mutant
[22] = CTX-M-15 on pACYC177, ΔramRΔ35 (ΔramRΔompK35 mutant)
[23] = CTX-M-15 on pACYC177, ΔramRΔ35/36 (ΔramRΔompK35/36 mutant)
[24] = CTX-M-15 on pACYC177, ΔramRΔ36 (ΔramRΔompK36 mutant)
[25] = DHA-1-AmpR on pACYC177, WT (NVT1001), read-out: MIC
[26] = DHA-1-AmpR on pACYC177, Δ35 (ΔompK35 mutant)
[27] = DHA-1-AmpR on pACYC177, Δ35/36 (ΔompK35/36 mutant)
[28] = DHA-1-AmpR on pACYC177, Δ36 (ΔompK36 mutant)
[29] = DHA-1-AmpR on pACYC177, ΔramR mutant
[30] = DHA-1-AmpR on pACYC177, ΔramRΔ35 (ΔramRΔompK35 mutant)
[31] = DHA-1-AmpR on pACYC177, ΔramRΔ35/36 (ΔramRΔompK35/36 mutant)
[32] = DHA-1-AmpR on pACYC177, ΔramRΔ36 (ΔramRΔompK36 mutant)
[33] = SHV-12 on pACYC177, WT (NVT1001), read-out: MIC
[34] = SHV-12 on pACYC177, Δ35 (ΔompK35 mutant)
[35] = SHV-12 on pACYC177, Δ35/36 (ΔompK35/36 mutant)
[36] = SHV-12 on pACYC177, Δ36 (ΔompK36 mutant)
[37] = SHV-12 on pACYC177, ΔramR mutant
[38] = SHV-12 on pACYC177, ΔramRΔ35 (ΔramRΔompK35 mutant)
[39] = SHV-12 on pACYC177, ΔramRΔ35/36 (ΔramRΔompK35/36 mutant)
[40] = SHV-12 on pACYC177, ΔramRΔ36 (ΔramRΔompK36 mutant)
[41] = no supplemental plasmid, WT (NVT1001), read-out: MIC
[42] = no supplemental plasmid, Δ35 (ΔompK35 mutant)
[43] = no supplemental plasmid, Δ35/36 (ΔompK35/36 mutant)
[44] = no supplemental plasmid, Δ36 (ΔompK36 mutant)
[45] = no supplemental plasmid, ΔramR mutant
[46] = no supplemental plasmid, ΔramRΔ35 (ΔramRΔompK35 mutant)
[47] = no supplemental plasmid, ΔramRΔ35/36 (ΔramRΔompK35/36 mutant)
[48] = no supplemental plasmid, ΔramRΔ36 (ΔramRΔompK36 mutant)

CO[C@@]1(NC(=O)Cc2cccs2)C(=O)N2C(C(=O)O)=C(COC(N)=O)CS[C@@H]21 [Cefoxitin]
128 µg/mL: MIC [35] | MIC [43]
> 256 µg/mL: MIC [1] | MIC [2] | MIC [3] | MIC [4] | MIC [5] | MIC [6] | MIC [7] | MIC [8] | MIC [15] | MIC [16] | MIC [23] | MIC [24] | MIC [25] | MIC [26] | MIC [27] | MIC [28] | MIC [29] | MIC [30] | MIC [31] | MIC [32] | MIC [39] | MIC [40] | MIC [47] | MIC [48]
64 µg/mL: MIC [11] | MIC [13] | MIC [14] | MIC [19] | MIC [21] | MIC [22] | MIC [37] | MIC [38] | MIC [45] | MIC [46]
4 µg/mL: MIC [9] | MIC [17] | MIC [33] | MIC [41] | MIC [42]
8 µg/mL: MIC [10] | MIC [18] | MIC [34]
no significant (≥4-fold) effects: effects on the MIC (production of ESBLs tested alone)
16 µg/mL: MIC [12] | MIC [20] | MIC [36] | MIC [44]

CCO/N=C(\C(=O)N[C@@H]1C(=O)N2C(C(=O)[O-])=C(Sc3nc(-c4cc[n+](C)cc4)cs3)CS[C@H]12)c1nsc(N)n1 [Ceftaroline]
8 µg/mL: MIC [25] | MIC [26] | MIC [28] | MIC [29] | MIC [30]
256 µg/mL: MIC [4] | MIC [8]
1 µg/mL: MIC [43] | MIC [45] | MIC [46]
0.25 µg/mL: MIC [41] | MIC [42]
16 µg/mL: MIC [27] | MIC [31] | MIC [32] | MIC [33] | MIC [34] | MIC [36] | MIC [37] | MIC [38]
64 µg/mL: MIC [1] | MIC [2] | MIC [5] | MIC [6] | MIC [35]
0.5 µg/mL: MIC [44]
> 256 µg/mL: MIC [3] | MIC [10] | MIC [11] | MIC [12] | MIC [13] | MIC [14] | MIC [15] | MIC [16] | MIC [17] | MIC [18] | MIC [19] | MIC [20] | MIC [21] | MIC [22] | MIC [23] | MIC [24]
32 µg/mL: MIC [39] | MIC [40]
128 µg/mL: MIC [7] | MIC [9]
4 µg/mL: MIC [47] | MIC [48]

CC(=O)OCC1=C(C(=O)O)N2C(=O)[C@@H](NC(=O)Cc3cccs3)[C@H]2SC1 [Cephalothin]
8 µg/mL: MIC [41] | MIC [42]
16 µg/mL: MIC [44]
64 µg/mL: MIC [45] | MIC [46]
256 µg/mL: MIC [43]
> 256 µg/mL: MIC [1] | MIC [2] | MIC [3] | MIC [4] | MIC [5] | MIC [6] | MIC [7] | MIC [8] | MIC [9] | MIC [10] | MIC [11] | MIC [12] | MIC [13] | MIC [14] | MIC [15] | MIC [16] | MIC [17] | MIC [18] | MIC [19] | MIC [20] | MIC [21] | MIC [22] | MIC [23] | MIC [24] | MIC [25] | MIC [26] | MIC [27] | MIC [28] | MIC [29] | MIC [30] | MIC [31] | MIC [32] | MIC [33] | MIC [34] | MIC [35] | MIC [36] | MIC [37] | MIC [38] | MIC [39] | MIC [40] | MIC [47] | MIC [48]

C[C@H]1[C@H](NC(=O)/C(=N\OC(C)(C)C(=O)O)c2csc(N)n2)C(=O)N1S(=O)(=O)O [Aztreonam]
4 µg/mL: MIC [29] | MIC [30]
16 µg/mL: MIC [10] | MIC [13] | MIC [14] | MIC [16] | MIC [27]
0.03 µg/mL: MIC [41]
0.5 µg/mL: MIC [43] | MIC [45] | MIC [46]
64 µg/mL: MIC [1] | MIC [4] | MIC [5] | MIC [6] | MIC [7] | MIC [8]
32 µg/mL: MIC [11] | MIC [15]
128 µg/mL: MIC [2] | MIC [33] | MIC [36]
256 µg/mL: MIC [3] | MIC [17]
8 µg/mL: MIC [26] | MIC [31] | MIC [32]
2 µg/mL: MIC [9] | MIC [12]
0.25 µg/mL: MIC [42]
> 256 µg/mL: MIC [18] | MIC [19] | MIC [20] | MIC [21] | MIC [22] | MIC [23] | MIC [24] | MIC [34] | MIC [35] | MIC [37] | MIC [38] | MIC [39] | MIC [40]
0.06 µg/mL: MIC [44]
1 µg/mL: MIC [25] | MIC [28] | MIC [47] | MIC [48]

Source: patent publication US10760110B2, “Antibiotic testing and screening system” (priority 2017, dated 2020)
